The target of the assay is T1, human chemokine receptor 2 isoform B (Homo sapiens, UniProt P41597).
T1 construct: host or cells: CHOK1-CCR2B-A5 (CHO-K1)
T1 sequence (P41597 1-360 isoform P41597-2): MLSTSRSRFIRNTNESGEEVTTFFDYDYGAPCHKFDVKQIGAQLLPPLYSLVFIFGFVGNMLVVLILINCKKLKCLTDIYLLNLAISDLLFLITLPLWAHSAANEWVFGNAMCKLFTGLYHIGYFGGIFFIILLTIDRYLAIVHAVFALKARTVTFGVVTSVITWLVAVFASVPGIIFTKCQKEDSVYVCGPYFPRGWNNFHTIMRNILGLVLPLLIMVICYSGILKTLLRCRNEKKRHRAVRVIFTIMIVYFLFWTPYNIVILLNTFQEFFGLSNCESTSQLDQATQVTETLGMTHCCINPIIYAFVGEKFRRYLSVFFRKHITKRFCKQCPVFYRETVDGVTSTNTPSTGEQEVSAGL
Put plainly: Calcium mobilization assay (CHOK1-CCR2B-A5 cells, FLIPR, MCP-1 stimulated). In kind it is cell-based. The note with it: Ca mobilisation assay for CCR2, antagonist activity, 50% inhibition of specific calcium increases after 20 nM MCP-1. In a few lines: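 Antagonism read as IC50 against 20 nM MCP-1-evoked calcium rise (peak minus baseline Fluo-4 signal, FLIPR) in CCR2B-overexpressing CHO-K1 cells. Compounds were preincubated 20-30 min at 30 °C, with agonist activity recorded for 80 s on addition.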

Molecules are shown by their SMILES.

On to `C[C@H]1C(=O)N2[C@@H](CCN3CCS(=O)(=O)CC3)COC[C@H]2CN1C(=O)Nc1ccc(Cl)c(Cl)c1` [Example 58, (4S,7S,9aR)-4-[2-(1,1-Dioxo-thiomorpholin-4-yl)-ethyl]-7-methyl-6-oxo-hexahydro-pyrazino[2,1-c][1,4]oxazine-8-carboxylic acid (3,4-dichloro-phenyl)-amide], for which the concentration for half-maximal inhibition (IC50) came out at 0.414 µM.
As to `C[C@H]1C(=O)N2C(CN1C(=O)Nc1ccc(F)c(Cl)c1)OC[C@@H]2CCN1CCC2(CC2)[C@H](O)C1` (stereo partly drawn) [Example 4, (3S,6S)-3-[2-((S)-4-Hydroxy-6-aza-spiro[2.5]oct-6-yl)-ethyl]-6-methyl-5-oxo-hexahydro-oxazolo[3,2-a]pyrazine-7-carboxylic acid (3-chloro-4-fluoro-phenyl)-amide], the IC50 came to 0.016 µM.

Source of the values: patent US8471004B2, “Bicyclic compounds” (Hoffman-La Roche Inc., priority 2009, dated 2013).
